ChEMBL document CHEMBL1201862, “PubChem BioAssay data set” (2004)
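Compound exposure: 48 hours, 5 concentrations, 96-well plates. The concentration for 50% growth inhibition is given as GI50.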 Active and inactive are the calls of the source. No stated cut-off is given here; in the data, active = GI50 up to about 1.1 µM and inactive = higher.

What was measured:
Experiment in all cases: inhibition of tumour cell growth, NCI panel, 48 h
786-0 = tested on: 786-0
A498 = tested on: A498
A549 = tested on: A549
ACHN = tested on: ACHN
BT-549 = tested on: BT-549
CAKI-1 = tested on: CAKI-1
CCRF-CEM = tested on: CCRF-CEM
COLO 205 = tested on: COLO 205
DU-145 = tested on: DU-145
EKVX = tested on: EKVX
HCC 2998 = tested on: HCC 2998
HCT-116 = tested on: HCT-116
HCT-15 = tested on: HCT-15
HL-60 = tested on: HL-60
HOP-62 = tested on: HOP-62
HOP-92 = tested on: HOP-92
HT-29 = tested on: HT-29
Hs-578T = tested on: Hs-578T
IGROV-1 = tested on: IGROV-1
K562 = tested on: K562
KM12 = tested on: KM12
LOX IMVI = tested on: LOX IMVI
M14 = tested on: M14
MCF7 = tested on: MCF7
MDA-MB-231 = tested on: MDA-MB-231
MDA-MB-435 = tested on: MDA-MB-435
MDA-N = tested on: MDA-N
MOLT-4 = tested on: MOLT-4
Malme-3M = tested on: Malme-3M
NCI-H226 = tested on: NCI-H226
NCI-H23 = tested on: NCI-H23
NCI-H460 = tested on: NCI-H460
NCI-H522 = tested on: NCI-H522
NCI/ADR-RES = tested on: NCI/ADR-RES
OVCAR-3 = tested on: OVCAR-3
OVCAR-4 = tested on: OVCAR-4
OVCAR-5 = tested on: OVCAR-5
OVCAR-8 = tested on: OVCAR-8
PC-3 = tested on: PC-3
RPMI-8226 = tested on: RPMI-8226
RXF 393 = tested on: RXF 393
SF-268 = tested on: SF-268
SF-295 = tested on: SF-295
SF-539 = tested on: SF-539
SK-MEL-28 = tested on: SK-MEL-28
SK-MEL-2 = tested on: SK-MEL-2
SK-MEL-5 = tested on: SK-MEL-5
SK-OV-3 = tested on: SK-OV-3
SN12C = tested on: SN12C
SNB-19 = tested on: SNB-19
SNB-75 = tested on: SNB-75
SR = tested on: SR
SW-620 = tested on: SW-620
T47D = tested on: T47D
TK-10 = tested on: TK-10
U-251 = tested on: U-251
UACC-257 = tested on: UACC-257
UACC-62 = tested on: UACC-62
UO-31 = tested on: UO-31

Measured: GI50

CN(C)CCN(c1ccccn1)c1ccccn1
inactive: 786-0 > 100 µM | A498 > 100 µM | A549 > 100 µM | ACHN > 100 µM | BT-549 > 100 µM | CAKI-1 > 100 µM | CCRF-CEM > 100 µM | COLO 205 > 100 µM | DU-145 > 100 µM | EKVX > 100 µM | HCC 2998 > 100 µM | HCT-116 > 100 µM | HL-60 > 100 µM | HOP-62 > 100 µM | HOP-92 > 100 µM | HT-29 > 100 µM | Hs-578T > 100 µM | IGROV-1 > 100 µM | K562 > 100 µM | KM12 > 100 µM | LOX IMVI > 100 µM | M14 > 100 µM | MCF7 > 100 µM | MDA-MB-231 > 100 µM | MDA-MB-435 > 100 µM | MDA-N > 100 µM | MOLT-4 > 100 µM | Malme-3M > 100 µM | NCI-H226 > 100 µM | NCI-H23 > 100 µM | NCI-H460 > 100 µM | NCI-H522 > 100 µM | NCI/ADR-RES > 100 µM | OVCAR-3 > 100 µM | OVCAR-4 > 100 µM | OVCAR-5 > 100 µM | OVCAR-8 > 100 µM | PC-3 > 100 µM | RPMI-8226 > 100 µM | RXF 393 > 100 µM | SF-268 > 100 µM | SF-295 > 100 µM | SF-539 > 100 µM | SK-MEL-28 > 100 µM | SK-MEL-2 > 100 µM | SK-MEL-5 > 100 µM | SK-OV-3 > 100 µM | SN12C > 100 µM | SNB-19 > 100 µM | SNB-75 > 100 µM | SR > 100 µM | SW-620 > 100 µM | T47D > 100 µM | TK-10 > 100 µM | U-251 > 100 µM | UACC-257 > 100 µM | UACC-62 > 100 µM | UO-31 > 100 µM
> 100 µM: HCT-15
